Measurements: PubChem BioAssay (NCI)
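Each compound was tested at five concentrations against cells in 96-well plates for 48 hours. GI50: concentration for 50% inhibition of growth. TGI: total growth inhibition.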

Key:
Assay in all cases: NCI tumour cell line growth inhibition, 48 h
SK-MEL-2 melanoma = test system: SK-MEL-2 melanoma
OVCAR-3 ovarian = test system: OVCAR-3 ovarian
SR leukemia = test system: SR leukemia
BT-549 breast = test system: BT-549 breast
A549 NSCLC = test system: A549 NSCLC
NCI-H522 lung = test system: NCI-H522 lung
MALME-3M melanoma = test system: MALME-3M melanoma
COLO 205 colon = test system: COLO 205 colon
NCI-H226 lung = test system: NCI-H226 lung
UACC-257 melanoma = test system: UACC-257 melanoma
HS 578T breast = test system: HS 578T breast
SW-620 colon = test system: SW-620 colon
SF-295 CNS = test system: SF-295 CNS
HT29 colon = test system: HT29 colon
KM12 colon = test system: KM12 colon
SNB-75 CNS = test system: SNB-75 CNS
CAKI-1 renal = test system: CAKI-1 renal
SK-MEL-5 melanoma = test system: SK-MEL-5 melanoma
RPMI-8226 leukemia = test system: RPMI-8226 leukemia
M14 melanoma = test system: M14 melanoma
MOLT-4 leukemia = test system: MOLT-4 leukemia
SN12C renal = test system: SN12C renal
HOP-62 NSCLC = test system: HOP-62 NSCLC
MCF7 breast = test system: MCF7 breast
PC-3 prostate = test system: PC-3 prostate
HCT-116 colon = test system: HCT-116 colon
UO-31 renal = test system: UO-31 renal
SK-MEL-28 melanoma = test system: SK-MEL-28 melanoma
DU-145 prostate = test system: DU-145 prostate
MDA-MB-435 = test system: MDA-MB-435
HL-60(TB) leukemia = test system: HL-60(TB) leukemia
ACHN renal = test system: ACHN renal
LOX IMVI melanoma = test system: LOX IMVI melanoma
MDA-MB-231 breast = test system: MDA-MB-231 breast
NCI/ADR-RES ovarian = test system: NCI/ADR-RES ovarian
CCRF-CEM leukemia = test system: CCRF-CEM leukemia
IGROV1 ovarian = test system: IGROV1 ovarian
NCI-H460 lung = test system: NCI-H460 lung
OVCAR-5 ovarian = test system: OVCAR-5 ovarian
U251 CNS = test system: U251 CNS
OVCAR-4 ovarian = test system: OVCAR-4 ovarian
A498 renal = test system: A498 renal
T-47D breast = test system: T-47D breast
SF-268 CNS = test system: SF-268 CNS
TK-10 renal = test system: TK-10 renal
HCT-15 colon = test system: HCT-15 colon
SF-539 CNS = test system: SF-539 CNS
RXF 393 renal = test system: RXF 393 renal
NCI-H23 lung = test system: NCI-H23 lung
HOP-92 NSCLC = test system: HOP-92 NSCLC
SNB-19 CNS = test system: SNB-19 CNS
SK-OV-3 ovarian = test system: SK-OV-3 ovarian
UACC-62 melanoma = test system: UACC-62 melanoma
OVCAR-8 ovarian = test system: OVCAR-8 ovarian
786-0 renal = test system: 786-0 renal
HCC-2998 colon = test system: HCC-2998 colon
K-562 leukemia = test system: K-562 leukemia

For `COC1C=COC2(C)Oc3c(C)c(O)c4c(O)c(c(C5SCCS5)c(O)c4c3C2=O)NC(=O)/C(C)=C\C=CC(C)C(O)C(C)C(O)C(C)C(OC(C)=O)C1C` (centres undefined), the TGI (SK-MEL-2 melanoma) was 24.6 µM, the TGI (OVCAR-3 ovarian) was 20.4 µM and the TGI (SR leukemia) was 7.14 µM. The TGI (BT-549 breast) was 16.2 µM, the TGI (A549 NSCLC) was 22.4 µM and the TGI (NCI-H522 lung) was 24.2 µM. It also gave a TGI (MALME-3M melanoma) of 26.7 µM, a TGI (COLO 205 colon) of 6.79 µM and a TGI (NCI-H226 lung) of 21.8 µM. For the same molecule, the TGI (UACC-257 melanoma) was 17.8 µM, the TGI (HS 578T breast) was 40.6 µM and the TGI (SW-620 colon) was 20.1 µM. For the same molecule, the TGI (SF-295 CNS) was 17.6 µM, the TGI (HT29 colon) was 13 µM and the TGI (KM12 colon) was 30.6 µM. It also gave a TGI (SNB-75 CNS) of 20.5 µM, a TGI (CAKI-1 renal) of 22.8 µM and a TGI (SK-MEL-5 melanoma) of 20.8 µM. It also gave a TGI (RPMI-8226 leukemia) of 8.58 µM, a TGI (M14 melanoma) of 27.5 µM and a TGI (MOLT-4 leukemia) of 4.43 µM. The TGI (SN12C renal) was 10.1 µM, the TGI (HOP-62 NSCLC) was 46 µM and the TGI (MCF7 breast) was 24.2 µM. The TGI (PC-3 prostate) was 20 µM, the TGI (HCT-116 colon) was 48.7 µM and the TGI (UO-31 renal) was 26.7 µM. For the same molecule, the TGI (SK-MEL-28 melanoma) was 20.8 µM, the TGI (DU-145 prostate) was 13.1 µM and the TGI (MDA-MB-435) was 16.1 µM. For the same molecule, the TGI (HL-60(TB) leukemia) was 12.5 µM, the TGI (ACHN renal) was 10.7 µM and the TGI (LOX IMVI melanoma) was 4.57 µM. The TGI (MDA-MB-231 breast) was 18.9 µM, the TGI (NCI/ADR-RES ovarian) was 34.6 µM and the TGI (CCRF-CEM leukemia) was 5.33 µM. The TGI (IGROV1 ovarian) was 22.4 µM, the TGI (NCI-H460 lung) was 18 µM and the TGI (OVCAR-5 ovarian) was 27.8 µM. The TGI (U251 CNS) was 14.5 µM, the TGI (OVCAR-4 ovarian) was 20.5 µM and the TGI (A498 renal) was 26.5 µM. The TGI (T-47D breast) was 11.7 µM, the TGI (SF-268 CNS) was 32 µM and the TGI (TK-10 renal) was 14.2 µM. For the same molecule, the TGI (HCT-15 colon) was 21.8 µM, the TGI (SF-539 CNS) was 20.9 µM and the TGI (RXF 393 renal) was 24.1 µM. The TGI (NCI-H23 lung) was 18.4 µM, the TGI (HOP-92 NSCLC) was 26.1 µM and the TGI (SNB-19 CNS) was 17.7 µM. The TGI (SK-OV-3 ovarian) was 27.7 µM, the TGI (UACC-62 melanoma) was 19.2 µM and the TGI (OVCAR-8 ovarian) was 26 µM. For the same molecule, the TGI (786-0 renal) was 48.4 µM.

For `Cn1c(=O)c(Oc2ccc(F)cc2F)cc2cnc(N[C@@H]3CCOC3)nc21`, the GI50 (SK-MEL-2 melanoma) was over 25 µM, the TGI (SK-MEL-2 melanoma) was over 25 µM and the GI50 (OVCAR-3 ovarian) was over 25 µM. The TGI (OVCAR-3 ovarian) was over 25 µM, the GI50 (SR leukemia) was over 25 µM and the TGI (SR leukemia) was over 25 µM. The GI50 (BT-549 breast) was over 25 µM, the TGI (BT-549 breast) was over 25 µM and the GI50 (A549 NSCLC) was over 25 µM. It also gave a TGI (A549 NSCLC) of over 25 µM, a GI50 (NCI-H522 lung) of over 25 µM and a TGI (NCI-H522 lung) of over 25 µM. For the same molecule, the GI50 (MALME-3M melanoma) was over 25 µM, the TGI (MALME-3M melanoma) was over 25 µM and the GI50 (COLO 205 colon) was over 25 µM. It also gave a TGI (COLO 205 colon) of over 25 µM, a GI50 (NCI-H226 lung) of over 25 µM and a TGI (NCI-H226 lung) of over 25 µM. For the same molecule, the GI50 (HCC-2998 colon) was over 25 µM, the TGI (HCC-2998 colon) was over 25 µM and the GI50 (UACC-257 melanoma) was over 25 µM. It also gave a TGI (UACC-257 melanoma) of over 25 µM, a GI50 (HS 578T breast) of over 25 µM and a TGI (HS 578T breast) of over 25 µM. For the same molecule, the GI50 (SW-620 colon) was over 25 µM, the TGI (SW-620 colon) was over 25 µM and the GI50 (SF-295 CNS) was over 25 µM. The TGI (SF-295 CNS) was over 25 µM, the GI50 (HT29 colon) was over 25 µM and the TGI (HT29 colon) was over 25 µM. The GI50 (KM12 colon) was over 25 µM, the TGI (KM12 colon) was over 25 µM and the GI50 (SNB-75 CNS) was over 25 µM. For the same molecule, the TGI (SNB-75 CNS) was over 25 µM, the GI50 (CAKI-1 renal) was over 25 µM and the TGI (CAKI-1 renal) was over 25 µM. It also gave a GI50 (SK-MEL-5 melanoma) of over 25 µM, a TGI (SK-MEL-5 melanoma) of over 25 µM and a GI50 (RPMI-8226 leukemia) of over 25 µM. For the same molecule, the TGI (RPMI-8226 leukemia) was over 25 µM, the GI50 (M14 melanoma) was over 25 µM and the TGI (M14 melanoma) was over 25 µM. It also gave a GI50 (MOLT-4 leukemia) of over 25 µM, a TGI (MOLT-4 leukemia) of over 25 µM and a GI50 (SN12C renal) of over 25 µM. The TGI (SN12C renal) was over 25 µM, the GI50 (HOP-62 NSCLC) was over 25 µM and the TGI (HOP-62 NSCLC) was over 25 µM. For the same molecule, the GI50 (MCF7 breast) was over 25 µM, the TGI (MCF7 breast) was over 25 µM and the GI50 (PC-3 prostate) was over 25 µM. The TGI (PC-3 prostate) was over 25 µM, the GI50 (HCT-116 colon) was over 25 µM and the TGI (HCT-116 colon) was over 25 µM. The GI50 (UO-31 renal) was over 11 µM, the TGI (UO-31 renal) was over 16.2 µM and the GI50 (SK-MEL-28 melanoma) was over 25 µM. It also gave a TGI (SK-MEL-28 melanoma) of over 25 µM, a GI50 (DU-145 prostate) of over 25 µM and a TGI (DU-145 prostate) of over 25 µM. The GI50 (MDA-MB-435) was over 25 µM, the TGI (MDA-MB-435) was over 25 µM and the GI50 (HL-60(TB) leukemia) was over 25 µM. The TGI (HL-60(TB) leukemia) was over 25 µM, the GI50 (ACHN renal) was over 25 µM and the TGI (ACHN renal) was over 25 µM. It also gave a GI50 (LOX IMVI melanoma) of over 25 µM, a TGI (LOX IMVI melanoma) of over 25 µM and a GI50 (MDA-MB-231 breast) of over 25 µM. It also gave a TGI (MDA-MB-231 breast) of over 25 µM, a GI50 (NCI/ADR-RES ovarian) of over 25 µM and a TGI (NCI/ADR-RES ovarian) of over 25 µM. It also gave a GI50 (CCRF-CEM leukemia) of over 25 µM, a TGI (CCRF-CEM leukemia) of over 25 µM and a GI50 (IGROV1 ovarian) of over 25 µM. For the same molecule, the TGI (IGROV1 ovarian) was over 25 µM, the GI50 (NCI-H460 lung) was over 25 µM and the TGI (NCI-H460 lung) was over 25 µM. For the same molecule, the GI50 (OVCAR-5 ovarian) was over 25 µM, the TGI (OVCAR-5 ovarian) was over 25 µM and the GI50 (U251 CNS) was over 25 µM. The TGI (U251 CNS) was over 25 µM, the GI50 (OVCAR-4 ovarian) was over 25 µM and the TGI (OVCAR-4 ovarian) was over 25 µM. The GI50 (A498 renal) was over 20.4 µM, the TGI (A498 renal) was over 25 µM and the GI50 (T-47D breast) was over 25 µM. For the same molecule, the TGI (T-47D breast) was over 25 µM, the GI50 (SF-268 CNS) was over 25 µM and the TGI (SF-268 CNS) was over 25 µM. For the same molecule, the GI50 (TK-10 renal) was over 25 µM, the TGI (TK-10 renal) was over 25 µM and the GI50 (HCT-15 colon) was over 25 µM. For the same molecule, the TGI (HCT-15 colon) was over 25 µM, the GI50 (SF-539 CNS) was over 25 µM and the TGI (SF-539 CNS) was over 25 µM. The GI50 (RXF 393 renal) was over 25 µM, the TGI (RXF 393 renal) was over 25 µM and the GI50 (NCI-H23 lung) was over 25 µM. The TGI (NCI-H23 lung) was over 25 µM, the GI50 (HOP-92 NSCLC) was 8.69 µM and the TGI (HOP-92 NSCLC) was over 25 µM. The GI50 (SNB-19 CNS) was over 25 µM, the TGI (SNB-19 CNS) was over 25 µM and the GI50 (SK-OV-3 ovarian) was over 25 µM. The TGI (SK-OV-3 ovarian) was over 25 µM, the GI50 (K-562 leukemia) was over 25 µM and the TGI (K-562 leukemia) was over 25 µM. It also gave a GI50 (UACC-62 melanoma) of over 25 µM, a TGI (UACC-62 melanoma) of over 25 µM and a GI50 (OVCAR-8 ovarian) of over 25 µM. For the same molecule, the TGI (OVCAR-8 ovarian) was over 25 µM, the GI50 (786-0 renal) was over 25 µM and the TGI (786-0 renal) was over 25 µM.
